In US12629374B2, “Antimalarial agents” (Merck Sharp & Dohme LLC, priority 2020, dated 2026):

Tested on: ring stage parasites
Test: Parasite growth potency assay, 72 hours, LDH readout
Assay type: cell-based
Conditions: 72 h, parasite growth measured by LDH assay after 72 hours at 37° C.; 0.7% rings, 2% haematocrit; read-out: EC50
Method in brief: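 Parasite growth was quantified by LDH assay after a −80 °C freeze-thaw. Before that, compound was incubated for 72 h at 37 °C under humidified gas with ring-stage cultures adjusted to 0.7% parasitemia and 2% haematocrit in serum- and albumax-supplemented RPMI-Hepes.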

Compound	EC50 [nM]
CCC1(CC)CC(=O)N(Cc2cc(F)cc(C(=O)N[C@H]3CCOc4ccccc43)c2)C(=N)N1 [Example 12, [1-[[3-[[(4S)-chroman-4-yl]carbamoyl]-5-fluoro-phenyl]methyl]-4,4-diethyl-6-oxo-hexahydropyrimidin-2-ylidene]ammonium; 2,2,2-trifluoroacetate]	1.4
CCC[C@H](c1cccc(C(=O)N[C@H]2CCOc3ccccc32)c1)N1C(=N)NC(CC)(CC)CC1=O [Example 13A, [1-[1-[3-[[(4S)-chroman-4-yl]carbamoyl]phenyl]butyl]-4,4-diethyl-6-oxo-hexahydropyrimidin-2-ylidene]ammonium; 2,2,2-trifluoroacetate]	0.3
CCC[C@@H](c1cccc(C(=O)N[C@H]2CCOc3ccccc32)c1)N1C(=N)NC(CC)(CC)CC1=O [Example 13B, [1-[1-[3-[[(4S)-chroman-4-yl]carbamoyl]phenyl]butyl]-4,4-diethyl-6-oxo-hexahydropyrimidin-2-ylidene]ammonium; 2,2,2-trifluoroacetate]	43.8
CCC1(CC)CC(=O)N([C@H](CC(C)C)c2cccc(C(=O)N[C@H]3CCOc4ccccc43)c2)C(=N)N1 [Example 14A, [1-[1-[3-[[(4S)-chroman-4-yl]carbamoyl]phenyl]-3-methyl-butyl]-4,4-diethyl-6-oxo-hexahydropyrimidin-2-ylidene]ammonium; 2,2,2-trifluoroacetate]	0.2
CCC1(CC)CC(=O)N([C@@H](CC(C)C)c2cccc(C(=O)N[C@H]3CCOc4ccccc43)c2)C(=N)N1 [Example 14B, [1-[1-[3-[[(4S)-chroman-4-yl]carbamoyl]phenyl]-3-methyl-butyl]-4,4-diethyl-6-oxo-hexahydropyrimidin-2-ylidene]ammonium; 2,2,2-trifluoroacetate]	55
CCC1(CC)CC(=O)N(Cc2cccc(C(=O)N[C@@H]3c4ccccc4C[C@H]3O)c2)C(=N)N1 [Example 15, [4,4-diethyl-1-[[3-[[(1R,2R)-2-hydroxyindan-1-yl]carbamoyl]phenyl]methyl]-6-oxo-hexahydropyrimidin-2-ylidene]ammonium; 2,2,2-trifluoroacetate]	2.6
CCC1(CC)CC(=O)N([C@H](c2ccccc2)c2cccc(C(=O)N[C@@H]3c4ccccc4C[C@H]3O)c2)C(=N)N1 [Example 16, [4,4-diethyl-1-[[3-[[(1R,2R)-2-hydroxyindan-1-yl]carbamoyl]phenyl]-phenyl-methyl]-6-oxo-hexahydropyrimidin-2-ylidene]ammonium; 2,2,2-trifluoroacetate]	0.3
N=C1N[C@@](CC2CC2)(c2ccccc2)CC(=O)N1Cc1cccc(C(=O)N[C@@H]2c3ccccc3C[C@H]2O)c1 [Example 17, [(4R)-4-(cyclopropylmethyl)-1-[[3-[[(1R,2R)-2-hydroxyindan-1-yl]carbamoyl]phenyl]methyl]-6-oxo-4-phenyl-hexahydropyrimidin-2-ylidene]ammonium; 2,2,2-trifluoroacetate]	3.7
CC(C)[C@]1(C)CC(=O)N(Cc2cccc(C(=O)N[C@@H]3c4ccccc4C[C@@H]3O)c2)C(=N)N1 [Example 18, [(4S)-1-[[3-[[(1R,2S)-2-hydroxyindan-1-yl]carbamoyl]phenyl]methyl]-4-isopropyl-4-methyl-6-oxo-hexahydropyrimidin-2-ylidene]ammonium; 2,2,2-trifluoroacetate]	21.5
CCC1(CC)CC(=O)N([C@H](COC)c2cccc(C(=O)N[C@H]3CCOc4ccccc43)c2)C(=N)N1 [Example 19, [1-[1-[3-[[(4S)-chroman-4-yl]carbamoyl]phenyl]-2-methoxy-ethyl]-4,4-diethyl-6-oxo-hexahydropyrimidin-2-ylidene]ammonium; 2,2,2-trifluoroacetate]	0.6
CCC1(CC)CC(=O)N(Cc2cccc(C(=O)N[C@H]3CCOc4ccccc43)c2F)C(=N)N1 [Example 20, [1-[[3-[[(4S)-chroman-4-yl]carbamoyl]-2-fluoro-phenyl]methyl]-4,4-diethyl-6-oxo-hexahydropyrimidin-2-ylidene]ammonium; 2,2,2-trifluoroacetate]	10.9
CCC1(CC)CC(=O)N(Cc2ccc(F)c(C(=O)N[C@H]3CCOc4ccccc43)c2)C(=N)N1 [Example 21, [1-[[3-[[(4S)-chroman-4-yl]carbamoyl]-4-fluoro-phenyl]methyl]-4,4-diethyl-6-oxo-hexahydropyrimidin-2-ylidene]ammonium; 2,2,2-trifluoroacetate]	3.5
CCC1(CC)CC(=O)N(Cc2ccnc(C(=O)N[C@H]3CCOc4ccccc43)c2)C(=N)N1 [Example 22, [1-[[2-[[(4S)-chroman-4-yl]carbamoyl]-4-pyridyl]methyl]-4,4-diethyl-6-oxo-hexahydropyrimidin-2-ylidene]ammonium; 2,2,2-trifluoroacetate]	17.2
CCC1(CC)CC(=O)N(Cc2cc(C(=O)N[C@H]3CCOc4ccccc43)ccn2)C(=N)N1 [Example 23, [1-[[4-[[(4S)-chroman-4-yl]carbamoyl]-2-pyridyl]methyl]-4,4-diethyl-6-oxo-hexahydropyrimidin-2-ylidene]ammonium; 2,2,2-trifluoroacetate]	11.5
CCC1(CC)CC(=O)N(Cc2cncc(C(=O)N[C@H]3CCOc4ccccc43)c2)C(=N)N1 [Example 24, [1-[[5-[[(4S)-chroman-4-yl]carbamoyl]-3-pyridyl]methyl]-4,4-diethyl-6-oxo-hexahydropyrimidin-2-ylidene]ammonium; 2,2,2-trifluoroacetate]	10.1
CC(C)[C@]1(C)CC(=O)N([C@H](C)c2cccc(C(=O)N[C@H]3CCOc4ccccc43)c2)C(=N)N1 [Example 25, [(4S)-1-[1-[3-[[(4S)-chroman-4-yl]carbamoyl]phenyl]ethyl]-4-isopropyl-4-methyl-6-oxo-hexahydropyrimidin-2-ylidene]ammonium; 2,2,2-trifluoroacetate]	4.4
CC(C)[C@]1(C)CC(=O)N([C@@H](c2cccc(C(=O)N[C@H]3CCOc4ccccc43)c2)C23CC(C2)C3)C(=N)N1 [Example 26, [(4S)-1-[1-bicyclo[1.1.1]pentanyl-[3-[[(4S)-chroman-4-yl]carbamoyl]phenyl]methyl]-4-isopropyl-4-methyl-6-oxo-hexahydropyrimidin-2-ylidene]ammonium; 2,2,2-trifluoroacetate]	8.9
CC(C)[C@]1(C)CC(=O)N([C@H](C)c2cccc(C(=O)N[C@@H]3c4ccccc4C[C@H]3O)c2)C(=N)N1 [Example 27, [(4S)-1-[1-[3-[[(1R,2R)-2-hydroxyindan-1-yl]carbamoyl]phenyl]ethyl]-4-isopropyl-4-methyl-6-oxo-hexahydropyrimidin-2-ylidene]ammonium; 2,2,2-trifluoroacetate]	3.2
CC(C)[C@]1(C)CC(=O)N([C@@H](c2cccc(C(=O)N[C@@H]3c4ccccc4C[C@H]3O)c2)C23CC(C2)C3)C(=N)N1 [Example 28, [(4S)-1-[1-bicyclo[1.1.1]pentanyl-[3-[[(1R,2R)-2-hydroxyindan-1-yl]carbamoyl]phenyl]methyl]-4-isopropyl-4-methyl-6-oxo-hexahydropyrimidin-2-ylidene]ammonium; 2,2,2-trifluoroacetate]	1.1
CC(C)[C@]1(C)CC(=O)N(Cc2cc(F)cc(C(=O)N[C@H]3CCOc4ccccc43)c2)C(=N)N1 [Example 29, [(4S)-1-[[3-[[(4S)-chroman-4-yl]carbamoyl]-5-fluoro-phenyl]methyl]-4-isopropyl-4-methyl-6-oxo-hexahydropyrimidin-2-ylidene]ammonium; 2,2,2-trifluoroacetate]	7.7
